This experiment addresses BioA (Mycobacterium tuberculosis, UniProt P9WQ81). The experiment in a line: continuous coupled fluorescence enzyme assay. The class given is biochemical.

Where a name gives a salt, the structure may show the parent alone.

Chain of BioA (P9WQ81 whole entry): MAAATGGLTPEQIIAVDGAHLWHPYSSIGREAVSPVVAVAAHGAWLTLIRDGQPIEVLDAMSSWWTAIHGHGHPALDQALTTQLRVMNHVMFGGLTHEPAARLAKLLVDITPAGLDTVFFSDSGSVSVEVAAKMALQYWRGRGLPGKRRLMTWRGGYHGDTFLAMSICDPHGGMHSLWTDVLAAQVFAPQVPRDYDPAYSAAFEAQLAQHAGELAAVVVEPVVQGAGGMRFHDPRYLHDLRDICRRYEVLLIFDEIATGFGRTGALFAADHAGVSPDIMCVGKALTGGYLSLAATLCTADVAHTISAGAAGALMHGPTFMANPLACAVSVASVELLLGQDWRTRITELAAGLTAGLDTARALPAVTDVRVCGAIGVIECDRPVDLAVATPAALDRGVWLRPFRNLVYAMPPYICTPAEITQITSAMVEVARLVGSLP

Take `N[C@H]1C=C[C@@H](CCCO)C1` (racemic) [M-2, (±)-cis-3-(-4-Aminocyclopent-2-enyl)propan-1-ol hydrochloride salt]: the IC50 is 57 ± 1.9 µM.

By IC50 is commonly meant the concentration needed to halve the response being measured. High values mean a need for much substance, low ones inhibition by little substance.

Values taken from paper PMC3448953 (2012).
